Where two headings read alike, the source gives them in different places.
Tests used:
[1] = tested on: human multiple myeloma cell line, OPM-2; test: Cell viability assay (OPM-2 10 FBS), CellTiter-Glo; type: cell-based
In short: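 Cells were seeded at 3000 cells/well in RPMI 1640 with 10% FBS and exposed to serially diluted compounds for 16 h at 37 °C, 5% CO2.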

[2] = target: recombinant human Mcl-1 (residues 171-327) / Bim interaction (Homo sapiens (Human), UniProt Q07820); test: biochemical; type: binding; settings: read-out: Mcl-1 HTRF IC50
Chain of recombinant human Mcl-1 (residues 171-327) / Bim interaction (Q07820 171-327): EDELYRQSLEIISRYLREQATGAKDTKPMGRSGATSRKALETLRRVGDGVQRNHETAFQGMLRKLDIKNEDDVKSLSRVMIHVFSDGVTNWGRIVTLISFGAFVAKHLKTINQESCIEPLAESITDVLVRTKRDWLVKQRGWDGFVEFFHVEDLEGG

[3] = read-out: OPM-2 10% FBS IC50 IP, OPM-2 cells, 10% FBS, 16 h incubation
[4] = 0.1 nM Mcl-1(171-327), 0.05 nM biotin-Bim (51-76)
[5] = Homo sapiens, OPM-2, 16 h, read-out: OPM-2 10% FBS IC50 IP, OPM-2 cells, 10% FBS, 16 h, CellTiter-Glo
[6] = TR-FRET, Mcl-1(171-327) / biotin-Bim (51-76)

## CO[C@@]1(CN2CCN3CCC(F)(F)CC3C2)/C=C/C[C@H](C)[C@@H](C)S(=O)(=O)NC(=O)c2ccc3c(c2)N(C[C@@H]2CC[C@H]21)C[C@@]1(CCCc2cc(Cl)ccc21)CO3 (mixture of isomers) [Example 273]
[1]; [3]
  IC50: 501 nM
[2]; [4]
  IC50: 0.494 nM

## CO[C@@]1(C[C@@H](O)C(C)C)/C=C/C[C@H](C)[C@@H](C)S(=O)(=O)NC(=O)c2ccc3c(c2)N(C[C@@H]2CC[C@H]21)C[C@@]1(CCCc2cc(Cl)ccc21)CO3 (racemic) [Example 100326, (1S,3′R,6′R,7′S,8′E,11′S,12′R)-6-chloro-7′-((2R)-2-hydroxy-3-methylbutyl)-7′-methoxy-11′,12′-dimethyl-3,4-dihydro-2H,15′H-spiro[naphthalene-1,22′-[20]oxa[13]thia[1,14]diazatetracyclo [14.7.2.0~3,6~.0~19,24~]pentacosa[8,16,18,24]tetraen]-15′-one 13′,13′-dioxide]
[1]; [5]
  IC50: 334 nM
[2]; [6]
  IC50: 0.615 nM

## CO[C@@]1(C[C@@H](O)C2CC2)/C=C/C[C@H](C)[C@@H](C)S(=O)(=O)NC(=O)c2ccc3c(c2)N(C[C@@H]2CC[C@H]21)C[C@@]1(CCCc2cc(Cl)ccc21)CO3 (racemic) [Example 100437, (1S,3′R,6′R,7′S,8′E,11′S,12′R)-6-chloro-7′-((2R)-2-cyclopropyl-2-hydroxyethyl)-7′-methoxy-11′,12′-dimethyl-3,4-dihydro-2H,15′H-spiro[naphthalene-1,22′-[20]oxa[13]thia[1,14]diazatetracyclo [14.7.2.0~3,6~.0~19,24~]pentacosa[8,16,18,24]tetraen]-15′-one 13′,13′-dioxide]
[1]; [5]
  IC50: 531 nM
[2]; [6]
  IC50: 0.073 nM

## CO[C@]1(CN2CC[C@H]3CCCC[C@@H]3C2)/C=C/C[C@H](C)[C@@H](C)S(=O)(=O)NC(=O)c2ccc3c(c2)N(C[C@@H]2CC[C@H]21)C[C@@]1(CCCc2cc(Cl)ccc21)CO3 (single isomer, unassigned) [Example 89]
[1]; [3]
  IC50: 8210 nM
[2]; [4]
  IC50: 3.75 nM

## CO[C@]1(CN2CC[C@@H]3CCCC[C@H]3C2)/C=C/C[C@H](C)[C@@H](C)S(=O)(=O)NC(=O)c2ccc3c(c2)N(C[C@@H]2CC[C@H]21)C[C@@]1(CCCc2cc(Cl)ccc21)CO3 (single isomer, unassigned) [Example 90]
[1]; [3]
  IC50: 8980 nM
[2]; [4]
  IC50: 4.66 nM

## CO[C@@]1(CN2CCN3CCOC[C@@H]3C2)/C=C/C[C@H](C)[C@@H](Cc2ccccc2)S(=O)(=O)NC(=O)c2ccc3c(c2)N(C[C@@H]2CC[C@H]21)C[C@@]1(CCCc2cc(Cl)ccc21)CO3 (single isomer, unassigned) [Example 102]
[1]; [3]
  IC50: 416 nM
[2]; [4]
  IC50: 0.182 nM

## C[C@@H]1[C@@H](C)C/C=C/[C@]2(CNC(=O)O2)[C@@H]2CC[C@H]2CN2C[C@@]3(CCCc4cc(Cl)ccc43)COc3ccc(cc32)C(=O)NS1(=O)=O (single isomer, unassigned) [Example 128]
[1]; [3]
  IC50: 19600 nM
[2]; [4]
  IC50: 0.256 nM

## C[C@@H]1[C@@H](C)C/C=C/[C@]2(CN3CCN(C)C[C@@H]3CO2)[C@@H]2CC[C@H]2CN2C[C@@]3(CCCc4cc(Cl)ccc43)COc3ccc(cc32)C(=O)NS1(=O)=O (single isomer, unassigned) [Example 132]
[1]; [3]
  IC50: 263 nM
[2]; [4]
  IC50: 0.613 nM

## C[C@@H]1[C@@H](C)C/C=C/[C@]2(CN3CCN(C)C[C@@H]3CO2)[C@@H]2CC[C@H]2CN2C[C@@]3(CCCc4cc(Cl)ccc43)COc3ccc(cc32)C(=O)NS1(=O)=O (single isomer, unassigned) [Example 133]
[1]; [3]
  IC50: 136 nM
[2]; [4]
  IC50: 0.189 nM

## CO[C@]1(CN2CCN3CCS(=O)(=O)C[C@@H]3C2)/C=C/C[C@H](C)[C@@H](C)S(=O)(=O)NC(=O)c2ccc3c(c2)N(C[C@@H]2CC[C@H]21)C[C@@]1(CCCc2cc(Cl)ccc21)CO3 (single isomer, unassigned) [Example 220]
[1]; [3]
  IC50: 42 nM
[2]; [4]
  IC50: 0.052 nM

## CO[C@]1(CN2CCN3CCS(=O)(=O)C[C@@H]3C2)/C=C/C[C@H](C)[C@@H](C)S(=O)(=O)NC(=O)c2ccc3c(c2)N(C[C@@H]2CC[C@H]21)C[C@@]1(CCCc2cc(Cl)ccc21)CO3 (single isomer, unassigned) [Example 221]
[1]; [3]
  IC50: 120 nM
[2]; [4]
  IC50: 0.069 nM

## CO[C@@]1(CN2CCN3CCS(=O)(=O)C[C@@H]3C2)/C=C/C[C@H](C)[C@@H](C)S(=O)(=O)NC(=O)c2ccc3c(c2)N(C[C@@H]2CC[C@H]21)C[C@@]1(CCCc2cc(Cl)ccc21)CO3 (single isomer, unassigned) [Example 231]
[1]; [3]
  IC50: 98 nM
[2]; [4]
  IC50: 0.061 nM

## CO[C@@]1(CN2CCN3CCS(=O)(=O)C[C@@H]3C2)/C=C/C[C@H](C)[C@@H](C)S(=O)(=O)NC(=O)c2ccc3c(c2)N(C[C@@H]2CC[C@H]21)C[C@@]1(CCCc2cc(Cl)ccc21)CO3 (single isomer, unassigned) [Example 232]
[1]; [3]
  IC50: 200 nM
[2]; [4]
  IC50: 0.141 nM

## CO[C@]1(CN2CCN3CCN(S(C)(=O)=O)C[C@@H]3C2)/C=C/C[C@H](C)[C@@H](C)S(=O)(=O)NC(=O)c2ccc3c(c2)N(C[C@@H]2CC[C@H]21)C[C@@]1(CCCc2cc(Cl)ccc21)CO3 (single isomer, unassigned) [Example 237]
[1]; [3]
  IC50: 64 nM
[2]; [4]
  IC50: 0.13 nM

## CO[C@]1(CN2CCN3CCN(S(C)(=O)=O)C[C@@H]3C2)/C=C/C[C@H](C)[C@@H](C)S(=O)(=O)NC(=O)c2ccc3c(c2)N(C[C@@H]2CC[C@H]21)C[C@@]1(CCCc2cc(Cl)ccc21)CO3 (single isomer, unassigned) [Example 238]
[1]; [3]
  IC50: 76 nM
[2]; [4]
  IC50: 0.176 nM

## CO[C@@]1(CN2CCN3CCN(C(C)C)C[C@@H]3C2)/C=C/C[C@H](C)[C@@H](C)S(=O)(=O)NC(=O)c2ccc3c(c2)N(C[C@@H]2CC[C@H]21)C[C@@]1(CCCc2cc(Cl)ccc21)CO3 (single isomer, unassigned) [Example 240]
[1]; [3]
  IC50: 141 nM
[2]; [4]
  IC50: 0.128 nM

## CO[C@@]1(CN2CCN3CCN(C(C)C)C[C@@H]3C2)/C=C/C[C@H](C)[C@@H](C)S(=O)(=O)NC(=O)c2ccc3c(c2)N(C[C@@H]2CC[C@H]21)C[C@@]1(CCCc2cc(Cl)ccc21)CO3 (single isomer, unassigned) [Example 241]
[1]; [3]
  IC50: 137 nM
[2]; [4]
  IC50: 0.15 nM

## CO[C@@]1(CN2CCN3CCN(S(C)(=O)=O)C[C@@H]3C2)/C=C/C[C@H](C)[C@@H](C)S(=O)(=O)NC(=O)c2ccc3c(c2)N(C[C@@H]2CC[C@H]21)C[C@@]1(CCCc2cc(Cl)ccc21)CO3 (single isomer, unassigned) [Example 244]
[1]; [3]
  IC50: 638 nM
[2]; [4]
  IC50: 1.65 nM

## CO[C@@]1(CN2CCN3CCN(S(C)(=O)=O)C[C@@H]3C2)/C=C/C[C@H](C)[C@@H](C)S(=O)(=O)NC(=O)c2ccc3c(c2)N(C[C@@H]2CC[C@H]21)C[C@@]1(CCCc2cc(Cl)ccc21)CO3 (single isomer, unassigned) [Example 245]
[1]; [3]
  IC50: 58 nM
[2]; [4]
  IC50: 0.12 nM

## CO[C@@]1(CN2CCN3CC[C@H](F)C[C@@H]3C2)/C=C/C[C@H](C)[C@@H](C)S(=O)(=O)NC(=O)c2ccc3c(c2)N(C[C@@H]2CC[C@H]21)C[C@@]1(CCCc2cc(Cl)ccc21)CO3 (single isomer, unassigned) [Example 283]
[1]; [3]
  IC50: 839 nM
[2]; [4]
  IC50: 0.354 nM

## CO[C@@]1(CN2CCN3CC[C@H](F)C[C@@H]3C2)/C=C/C[C@H](C)[C@@H](C)S(=O)(=O)NC(=O)c2ccc3c(c2)N(C[C@@H]2CC[C@H]21)C[C@@]1(CCCc2cc(Cl)ccc21)CO3 (single isomer, unassigned) [Example 284]
[1]; [3]
  IC50: 230 nM
[2]; [4]
  IC50: 0.288 nM

## CO[C@@]1(CN2CCN([C@H]3CCOC3)CC2)/C=C/C[C@H](C)[C@@H](C)S(=O)(=O)NC(=O)c2ccc3c(c2)N(C[C@@H]2CC[C@H]21)C[C@@]1(CCCc2cc(Cl)ccc21)CO3 (single isomer, unassigned) [Example 285]
[1]; [3]
  IC50: 62 nM
[2]; [4]
  IC50: 0.107 nM

## CO[C@@]1(CN2CCN([C@@H]3CCOC3)CC2)/C=C/C[C@H](C)[C@@H](C)S(=O)(=O)NC(=O)c2ccc3c(c2)N(C[C@@H]2CC[C@H]21)C[C@@]1(CCCc2cc(Cl)ccc21)CO3 (single isomer, unassigned) [Example 286]
[1]; [3]
  IC50: 50 nM
[2]; [4]
  IC50: 0.155 nM

## CO[C@@]1(CN2CCN3CCC(F)(F)C[C@@H]3C2)/C=C/C[C@H](C)[C@@H](C)S(=O)(=O)NC(=O)c2ccc3c(c2)N(C[C@@H]2CC[C@H]21)C[C@@]1(CCCc2cc(Cl)ccc21)CO3 (single isomer, unassigned) [Example 288]
[1]; [3]
  IC50: 652 nM
[2]; [4]
  IC50: 0.484 nM

## CO[C@@]1(CN2CCN3CCC(F)(F)C[C@H]3C2)/C=C/C[C@H](C)[C@@H](C)S(=O)(=O)NC(=O)c2ccc3c(c2)N(C[C@@H]2CC[C@H]21)C[C@@]1(CCCc2cc(Cl)ccc21)CO3 (single isomer, unassigned) [Example 289]
[1]; [3]
  IC50: 131 nM
[2]; [4]
  IC50: 0.214 nM

## CO[C@@]1(CN2CCN3CCN(C(=O)CCS(=O)(=O)c4ccccc4)C[C@@H]3C2)/C=C/C[C@H](C)[C@@H](C)S(=O)(=O)NC(=O)c2ccc3c(c2)N(C[C@@H]2CC[C@H]21)C[C@@]1(CCCc2cc(Cl)ccc21)CO3 (single isomer, unassigned) [Example 294]
[1]; [3]
  IC50: 687 nM
[2]; [4]
  IC50: 0.66 nM

## CO[C@@]1(CN2CCN3CCN(C(=O)CCS(=O)(=O)c4ccccc4)C[C@H]3C2)/C=C/C[C@H](C)[C@@H](C)S(=O)(=O)NC(=O)c2ccc3c(c2)N(C[C@@H]2CC[C@H]21)C[C@@]1(CCCc2cc(Cl)ccc21)CO3 (single isomer, unassigned) [Example 295]
[1]; [3]
  IC50: 104 nM
[2]; [4]
  IC50: 0.321 nM

## CO[C@]1(CN2CCN3CCC(F)(F)C[C@@H]3C2)/C=C/C[C@H](C)[C@@H](C)S(=O)(=O)NC(=O)c2ccc3c(c2)N(C[C@@H]2CC[C@H]21)C[C@@]1(CCCc2cc(Cl)ccc21)CO3 (single isomer, unassigned) [Example 298]
[1]; [3]
  IC50: 262 nM
[2]; [4]
  IC50: 0.279 nM

Reference: patent US10821115B2, “Compounds that inhibit Mcl-1 protein” (priority 2017, dated 2020)
